Assay results from publication PMC10350924, “Design, Synthesis, and Pharmacological Characterization of a Potent Soluble Epoxide Hydrolase Inhibitor for the Treatment of Acute Pancreatitis” (Journal of Medicinal Chemistry, 2023).

Legend:
5-LOX = biological target: T1, 5-LOX (Homo sapiens, UniProt P09917); experiment: Cell-free 5-LOX activity assay; type: biochemical; design: made in house; host or cells: Escherichia coli Bl21 (DE3); conditions: human isolated 5-LOX
T1 sequence (P09917 1-674): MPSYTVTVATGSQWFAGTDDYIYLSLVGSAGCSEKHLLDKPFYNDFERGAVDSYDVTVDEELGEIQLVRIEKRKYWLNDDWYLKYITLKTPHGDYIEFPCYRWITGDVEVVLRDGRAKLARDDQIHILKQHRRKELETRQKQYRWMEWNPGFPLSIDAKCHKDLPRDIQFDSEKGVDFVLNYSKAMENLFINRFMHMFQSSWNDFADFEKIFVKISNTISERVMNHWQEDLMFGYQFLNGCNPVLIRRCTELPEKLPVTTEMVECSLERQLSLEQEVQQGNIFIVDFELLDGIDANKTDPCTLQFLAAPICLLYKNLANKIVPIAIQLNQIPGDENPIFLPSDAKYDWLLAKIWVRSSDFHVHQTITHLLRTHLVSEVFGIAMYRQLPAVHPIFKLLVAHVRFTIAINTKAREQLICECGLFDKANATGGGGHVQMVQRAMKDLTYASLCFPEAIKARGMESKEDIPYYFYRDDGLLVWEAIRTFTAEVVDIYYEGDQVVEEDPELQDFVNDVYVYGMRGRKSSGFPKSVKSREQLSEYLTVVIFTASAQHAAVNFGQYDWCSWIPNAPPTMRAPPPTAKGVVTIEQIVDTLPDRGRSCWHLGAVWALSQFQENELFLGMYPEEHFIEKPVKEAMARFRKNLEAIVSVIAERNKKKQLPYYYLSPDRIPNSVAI
Procedure: Human recombinant 5-LOX was expressed in Escherichia coli Bl21 (DE3) cells that were transformed with the plasmid pT3-5LO (wt 5-LOX) and purified on an adenosine triphosphate (ATP)-agarose column by affinity chromatography.[40],[41] In a first step, E. coli was lysed in 50 mM triethanolamine/HCl pH 8.0 with ethylenediamine tetraacetic acid (EDTA) (5 mM), soybean trypsin inhibitor (60 μg/mL), phenylmethanesulfonyl fluoride (1 mM), dithiothreitol (1 mM), and lysozyme (1 mg/mL) and sonicated 3 times for 15 s. The homogenate was centrifuged at 40,000g for 20 min at 4 °C. The supernatant was transferred to an ATP-agarose column (Sigma-Aldrich, Deisenhofen, Germany), which was sequentially washed with phosphate-buffered saline (PBS) pH 7.4, 1 mM EDTA, 50 mM phosphate buffer pH 7.4, 0.5 M NaCl, 1 mM EDTA, and finally 50 mM phosphate buffer pH 7.4 plus 1 mM EDTA. The enzyme was eluted with 50 mM phosphate buffer pH 7.4, 1 mM EDTA, and 20 mM ATP.
5-LOX product formation was started by the addition of 20 μM arachidonic acid (Sigma-Aldrich) and CaCl2 (2 mM) and stopped by the addition of an equal volume of ice-cold methanol containing PGB1 (200 ng) as internal standard after 10 min at 37 °C.

[1] = Chemical stability in phosphate buffer pH 7.4; type: physicochemical; conditions: 5 μM
Source text: The chemical and metabolic stabilities of compounds 6, 27, 28, 30, and 36 were monitored using a UHPLC system (Shimadzu, Kyoto, Japan) consisting of a CBM-40 Lite controller, two LC-40B X3 solvent delivery modules, an SPD-M40 photodiode array detector, a CTO-30A column oven and, a SIL-40AC X3 autosampler. The UHPLC system was coupled online to LCMS-2020 single quadrupole mass spectrometer (Shimadzu, Kyoto, Japan) equipped with an electrospray ionization (ESI) source operating in positive mode.
The chromatographic separation was accomplished on a Luna Omega 1.6 μm Polar C18 100 Å, 100 mm × 2.1 mm (Phenomenex, Bologna, Italy) maintained at 40 °C. The optimal mobile phase consisted of 0.1% HCOOH/H2O v/v (A) and 0.1% HCOOH/ACN v/v (B) delivered at a constant flow rate of 0.3 mL min^–1. Analysis was performed in gradient elution as follows: 0–8.00 min, 30–95% B; 8.00–10.00 min, isocratic to 95% B, then 5 min for column re-equilibration.
The ESI was operated in positive mode, with the following parameters: interface temperature, 350 °C; interface voltage, 4.5 kV; DL (desolvation line) temperature, 250 °C; block heater temperature, 200 °C; nebulizing gas flow (N2), 1.5 L min^–1; drying gas pressure, 15 L min^–1. Quantification was performed in SIM (single-ion monitoring) mode.
For the calibration curves, the primary stock solutions (10 mM) of compounds 6, 27, 28, 30, and 36 were prepared in DMSO. The working standard solutions were prepared by serial dilution of the stock solutions in methanol to obtain necessary concentrations (0.25–10 μM). A solution containing an internal standard (IS: tolbutamide) was prepared at 10 μM in methanol. Quantitation of compounds 6, 27, 28, 30, and 36 was performed using linear regression of the response ratios obtained from the calibration curve to calculate the corresponding amount (6: y = 1.97175x + 0.53508, R^2 = 0.9998; 27: y = 2.90980x + 0.03831, R^2 = 0.9993; 28: y = 2.05962x + 0.02242, R^2 = 0.9994; 30: y = 1.98080x + 0.14962, R^2 = 0.9997; 36: y = 4.59526x – 0.13459, R^2 = 0.9991).
1.25 μL of test compounds (5 μM final incubation concentration) was incubated in 200 μL of phosphate buffer at pH 7.4. At each specified time point (0, 0.5, 1, 1.5, and 2 h), the analyte was removed into 200 μL of ice-cold methanol containing internal standard (tolbutamide) to stop degradation. Finally, the concentration of the test compound was quantified by LC-MS. The percentage of compound remaining (relative to the 0 min time point) at the individual time points is then reported. All experiments were performed in triplicate.

[2] = 0.5 h, compound remaining relative to 0 min

Row | IC50 (5-LOX) [nM] | chemical stability in phosphate buffer (pH 7.4) [1, 2] [%] | chemical stability in phosphate buffer (pH 7.4) ([1]; 1.0 h) [%] | chemical stability in phosphate buffer (pH 7.4) ([1]; 1.5 h) [%] | chemical stability in phosphate buffer (pH 7.4) ([1]; 2.0 h) [%] | SMILES
1 | > 1000 | 99.2 ± 1.7 | 95.5 ± 4.5 | 98.9 ± 0.2 | 96.4 ± 0.5 | O=C(NCC12C[C@H]3C[C@@H](C1)C[C@@H](C2)C3)Nc1ccc2c(ccn2Cc2ccc(F)cc2)c1 [Compound 27, 1-(((3R,5R,7R)-Adamantan-1-yl)methyl)-3-(1-(4-fluorobenzyl)-1H-indol-5-yl)urea]
2 | 71 ± 16 | 97.9 ± 3.5 | 100.7 ± 4.3 | 100.5 ± 3.5 | 102.4 ± 0.1 | O=C(Nc1ccc2c(c1)CCN2Cc1ccc(F)cc1)NC12C[C@H]3C[C@@H](C1)C[C@@H](C2)C3 [Compound 6, 1-((3S,5S,7S)-Adamantan-1-yl)-3-(1-(4-fluorobenzyl)indolin-5-yl)urea]
3 | > 1000 | 102.5 ± 1.1 | 100.3 ± 1.9 | 99.6 ± 0.2 | 102.4 ± 3.5 | O=C(NCC12C[C@H]3C[C@@H](C1)C[C@@H](C2)C3)Nc1ccc2c(ccn2CCc2ccc(F)cc2)c1 [Compound 30, 1-(((3R,5R,7R)-Adamantan-1-yl)methyl)-3-(1-(4-fluorophenethyl)-1H-indol-5-yl)urea]
4 | > 1000 | 96.3 ± 3.2 | 95.2 ± 1.8 | 99.8 ± 2.1 | 92.4 ± 2.0 | O=C(NCC12C[C@H]3C[C@@H](C1)C[C@@H](C2)C3)Nc1ccc2c(ccn2C(=O)c2ccc(F)cc2)c1 [Compound 36, 1-(((3R,5R,7R)-Adamantan-1-yl)methyl)-3-(1-(4-fluorobenzoyl)-1H-indol-5-yl)urea]

Row | SMILES | IC50 (5-LOX) [nM] | chemical stability in phosphate buffer (pH 7.4) [1, 2] [%] | chemical stability in phosphate buffer (pH 7.4) ([1]; 1.0 h) [%] | chemical stability in phosphate buffer (pH 7.4) ([1]; 1.5 h) [%] | chemical stability in phosphate buffer (pH 7.4) ([1]; 2.0 h) [%]
5 | CC(C)c1ccc(Cn2ccc3cc(NC(=O)NCC45C[C@H]6C[C@@H](C4)C[C@@H](C5)C6)ccc32)cc1 [Compound 28, 1-(((3R,5R,7R)-Adamantan-1-yl)methyl)-3-(1-(4-isopropylbenzyl)-1H-indol-5-yl)urea] | > 1000 | 102.0 ± 2.7 | 101.7 ± 1.9 | 99.7 ± 2.3 | 102.4 ± 1.8
